Reference: US20230092890A1, “1, 3, 4-Oxadiazole derivative compounds as histone deacetylase 6 inhibitor, and the pharmaceutical composition comprising the same” (Chong Kun Dang Pharmaceutical Corp., priority 2019, published 2023)

Columns and labels:
HDAC1 = biological target: T1, HDAC1 (Homo sapiens, UniProt Q13547); assay: HDAC enzyme activity inhibition (in vitro), HDAC1 Fluorimetric Drug Discovery Assay Kit; format: biochemical; details: samples at 100, 1000 and 10000 nM; 37° C. 60 minutes; fluorescence Ex 390, Em 460; read-out: HDAC1 IC50
T1 construct: purchased Enzolifesciences BML-AK511
How it was run: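 Compound incubated with enzyme 60 min at 37° C, then developer 30 min at 37° C; fluorescence read at Ex 390/Em 460. HDAC1 via fluorimetric kit, compounds at 100, 1000 and 10000 nM; HDAC6 human recombinant, compounds at 0.1, 1, 10, 100 and 1000 nM.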

HDAC6 human recombinant = biological target: T2, HDAC6 human recombinant (Homo sapiens, UniProt Q9UBN7); assay: HDAC enzyme activity inhibition (in vitro), HDAC6 assay; format: biochemical; details: samples at 0.1, 1, 10, 100 and 1000 nM; 37° C. 60 minutes; fluorescence Ex 390, Em 460; read-out: HDAC6 IC50
T2 construct: purchased Calbiochem 382180
T2 sequence (Q9UBN7 1-1215): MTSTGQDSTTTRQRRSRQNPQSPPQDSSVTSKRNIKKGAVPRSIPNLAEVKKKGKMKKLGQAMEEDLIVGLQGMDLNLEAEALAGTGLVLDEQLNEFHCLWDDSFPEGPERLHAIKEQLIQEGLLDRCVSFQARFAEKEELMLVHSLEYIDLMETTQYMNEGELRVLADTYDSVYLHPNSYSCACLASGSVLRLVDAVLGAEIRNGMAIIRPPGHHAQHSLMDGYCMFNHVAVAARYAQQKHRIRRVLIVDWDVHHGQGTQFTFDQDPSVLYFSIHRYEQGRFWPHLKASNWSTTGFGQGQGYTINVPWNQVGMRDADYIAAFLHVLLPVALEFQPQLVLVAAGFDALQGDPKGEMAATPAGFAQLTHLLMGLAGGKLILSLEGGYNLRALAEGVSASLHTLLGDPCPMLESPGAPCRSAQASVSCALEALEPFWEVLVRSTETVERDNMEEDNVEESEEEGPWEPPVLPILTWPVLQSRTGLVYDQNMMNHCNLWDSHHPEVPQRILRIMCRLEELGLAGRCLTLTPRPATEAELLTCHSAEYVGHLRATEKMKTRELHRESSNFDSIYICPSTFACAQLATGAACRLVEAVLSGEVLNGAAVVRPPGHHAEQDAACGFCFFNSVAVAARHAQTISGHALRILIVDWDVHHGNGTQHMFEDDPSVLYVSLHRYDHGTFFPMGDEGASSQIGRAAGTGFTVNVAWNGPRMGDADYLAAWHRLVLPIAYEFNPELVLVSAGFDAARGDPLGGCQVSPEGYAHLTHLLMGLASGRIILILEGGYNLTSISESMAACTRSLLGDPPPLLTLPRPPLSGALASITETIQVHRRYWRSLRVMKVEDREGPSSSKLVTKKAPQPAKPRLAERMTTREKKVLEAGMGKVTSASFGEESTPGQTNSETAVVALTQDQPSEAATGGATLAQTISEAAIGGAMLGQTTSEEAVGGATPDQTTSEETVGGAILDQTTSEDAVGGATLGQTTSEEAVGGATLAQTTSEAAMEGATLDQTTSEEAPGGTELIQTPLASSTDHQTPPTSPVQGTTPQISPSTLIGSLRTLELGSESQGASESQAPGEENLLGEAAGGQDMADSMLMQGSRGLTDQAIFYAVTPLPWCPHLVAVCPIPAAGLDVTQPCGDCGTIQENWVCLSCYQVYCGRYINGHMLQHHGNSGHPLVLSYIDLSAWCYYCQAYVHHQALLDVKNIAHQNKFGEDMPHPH
How it was run: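 HDAC6 human recombinant enzyme with fluorimetric substrate; […]. Reaction 60 min at 37° C, then developer 30 min at 37° C; fluorescence read at Ex 390/Em 460.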

T1 sequence (Q13547 whole entry): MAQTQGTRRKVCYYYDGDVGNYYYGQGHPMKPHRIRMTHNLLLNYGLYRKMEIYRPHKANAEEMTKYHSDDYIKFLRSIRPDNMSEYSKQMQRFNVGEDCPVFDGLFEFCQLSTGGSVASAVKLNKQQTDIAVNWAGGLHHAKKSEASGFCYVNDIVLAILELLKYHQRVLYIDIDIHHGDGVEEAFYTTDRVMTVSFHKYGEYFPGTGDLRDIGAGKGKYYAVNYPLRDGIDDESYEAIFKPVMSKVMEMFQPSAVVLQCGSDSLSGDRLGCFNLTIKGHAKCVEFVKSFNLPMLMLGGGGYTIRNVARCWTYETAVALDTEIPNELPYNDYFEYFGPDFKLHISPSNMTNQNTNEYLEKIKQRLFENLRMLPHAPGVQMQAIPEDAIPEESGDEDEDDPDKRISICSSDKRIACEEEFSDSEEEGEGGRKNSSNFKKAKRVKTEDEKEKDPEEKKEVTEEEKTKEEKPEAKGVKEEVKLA

Row | Structure (SMILES) | IC50 (HDAC1) | IC50 (HDAC6 human recombinant)
1 | CCN1CCN(c2ccc(-c3cc4oc(=O)n(Cc5ccc(-c6nnc(C(F)F)o6)cn5)c4cc3F)cn2)CC1 [Compound 347, 3-((5-(5-(difluoromethyl)-1,3,4-oxadiazole-2-yl)pyridine-2-yl)methyl)-6-(6-(4-ethylpiperazine-1-yl)pyridine-3-yl)-5-fluorobenzo[d]oxazole-2(3H)-one] | > 10000 nM | 62 nM
2 | CN1CCC(n2c(=O)n(Cc3ccc(-c4nnc(C(F)F)o4)cn3)c3ccccc32)CC1 [Compound 4, 1-((5-(5-(difluoromethyl)-1,3,4-oxadiazole-2-yl)pyridine-2-yl)methyl)-3-(1-methylpiperidine-4-yl)-1,3-dihydro-2H-benzo[d]imidazole-2-one] | > 10000 nM | 178 nM
3 | CC(C)N1CCC(c2cc3oc(=O)n(Cc4ccc(-c5nnc(C(F)F)o5)cn4)c3cc2F)CC1 [Compound 335, 3-((5-(5-(difluoromethyl)-1,3,4-oxadiazole-2-yl)pyridine-2-yl)methyl)-5-fluoro-6-(1-isopropylpiperidine-4-yl)benzo[d]oxazole-2(3H)-one] | > 10000 nM | 75 nM
4 | CN1CCC(n2c(=O)n(Cc3ccc(-c4nnc(C(F)F)o4)cn3)c3cc(F)c(Br)cc32)CC1 [Compound 149, 5-bromo-1-((5-(5-(difluoromethyl)-1,3,4-oxadiazole-2-yl)pyridine-2-yl)methyl)-6-fluoro-3-(1-methylpiperidine-4-yl)-1,3-dihydro-2H-benzo[d]imidazole-2-one] | > 10000 nM | 40 nM
5 | CS(=O)(=O)N1CCC(n2c(=O)n(Cc3ccc(-c4nnc(C(F)F)o4)cc3)c3ncccc32)CC1 [Compound 205, 3-(4-(5-(difluoromethyl)-1,3,4-oxadiazole-2-yl)benzyl)-1-(1-(methylsulfonyl)piperidine-4-yl)-1,3-dihydro-2H-imidazo[4,5-b]pyridine-2-one] | > 10000 nM | 739 nM
6 | O=c1n(Cc2ccc(-c3nnc(C(F)F)o3)cn2)c2cc(F)c(-c3cccnc3)cc2n1C1CCN(CC(F)(F)C(F)F)CC1 [Compound 242, 1-((5-(5-(difluoromethyl)-1,3,4-oxadiazole-2-yl)pyridine-2-yl)methyl)-6-fluoro-5-(pyridine-3-yl)-3-(1-(2,2,3,3-tetrafluoropropyl)piperidine-4-yl)-1,3-dihydro-2H-benzo[d]imidazole-2-one] | > 10000 nM | 46 nM
7 | Cc1ccc(-c2ccc3c(c2)n(Cc2ccc(-c4nnc(C(F)F)o4)cn2)c(=O)n3C2CCN(C)CC2)o1 [Compound 146, 3-((5-(5-(difluoromethyl)-1,3,4-oxadiazole-2-yl)pyridine-2-yl)methyl)-5-(5-methylfuran-2-yl)-1-(1-methylpiperidine-4-yl)-1,3-dihydro-2H-benzo[d]imidazole-2-one] | > 10000 nM | 130 nM
8 | Cn1c(=O)n(Cc2ccc(-c3nnc(C(F)F)o3)cc2F)c2cc(-c3cccc(F)c3)ccc21 [Compound 112, 3-(4-(5-(difluoromethyl)-1,3,4-oxadiazole-2-yl)-2-fluorobenzyl)-5-(3-fluorophenyl)-1-m ethyl-1,3-dihydro-2H-benzo[d]imidazole-2-one] | > 10000 nM | 864 nM

More lines, now with the values ahead:

Row | IC50 (HDAC1) | IC50 (HDAC6 human recombinant) | Structure (SMILES)
9 | > 10000 nM | 45 nM | O=c1n(Cc2ccc(-c3nnc(C(F)F)o3)cc2F)c2cc(F)c(F)cc2n1C1CCN(C2COC2)CC1 [Compound 94, 1-(4-(5-(difluoromethyl)-1,3,4-oxadiazole-2-yl)-2-fluorobenzyl)-5,6-difluoro-3-(1-(oxetan-3-yl)piperidine-4-yl)-1,3-dihydro-2H-benzo[d]imidazole-2-one]
10 | > 10000 nM | 1310 nM | CN1CCC(n2c(=O)n(Cc3ccc(-c4nnc(C(F)F)o4)cc3F)c3cc(-c4cccc(F)c4)ccc32)CC1 [Compound 120, 3-(4-(5-(difluoromethyl)-1,3,4-oxadiazole-2-yl)-2-fluorobenzyl)-5-(3-fluorophenyl)-1-(1-methylpiperidine-4-yl)-1,3-dihydro-2H-benzo[d]imidazole-2-one]
11 | > 10000 nM | 12 nM | CN1CCC[C@@H](n2c(=O)n(Cc3ccc(-c4nnc(C(F)F)o4)cn3)c3cc(F)c(-c4cccnc4)cc32)C1 [Compound 274, (R)-1-((5-(5-(difluoromethyl)-1,3,4-oxadiazole-2-yl)pyridine-2-yl)methyl)-6-fluoro-3-(1-methylpiperidine-3-yl)-5-(pyridine-3-yl)-1,3-dihydro-2H-benzo[d]imidazole-2-one]
12 | > 10000 nM | 31 nM | O=c1oc2cc(-c3cnn(C4CCN(C5COC5)CC4)c3)c(F)cc2n1Cc1ccc(-c2nnc(C(F)F)o2)cn1 [Compound 362, 3-((5-(5-(difluoromethyl)-1,3,4-oxadiazole-2-yl)pyridine-2-yl)methyl)-5-fluoro-6-(1-(1-(oxetan-3-yl)piperidine-4-yl)-1H-pyrazole-4-yl)benzo[d]oxazole-2(3H)-one]
13 | > 10000 nM | 34 nM | Cn1c(=O)n(Cc2ccc(-c3nnc(C(F)F)o3)cn2)c2cc(F)c(-c3cccc(F)c3)cc21 [Compound 166, 1-((5-(5-(difluoromethyl)-1,3,4-oxadiazole-2-yl)pyridine-2-yl)methyl)-6-fluoro-5-(3-fluorophenyl)-3-methyl-1,3-dihydro-2H-benzo[d]imidazole-2-one]
14 | > 10000 nM | 33 nM | Cn1c(=O)n(Cc2ccc(-c3nnc(C(F)F)o3)cn2)c2cc(F)c(N3CCN(Cc4cn[nH]c4)CC3)cc21 [Compound 285, 5-(4-((1H-pyrazole-4-yl)methyl)piperazine-1-yl)-1-((5-(5-(difluoromethyl)-1,3,4-oxadiazole-2-yl)pyridine-2-yl)methyl)-6-fluoro-3-methyl-1,3-dihydro-2H-benzo[d]imidazole-2-one]
15 | > 10000 nM | 59 nM | O=c1n(Cc2ccc(-c3nnc(C(F)F)o3)cc2F)c2ccc(Cl)cc2n1C1CCN(C2COC2)CC1 [Compound 102, 5-chloro-1-(4-(5-(difluoromethyl)-1,3,4-oxadiazole-2-yl)-2-fluorobenzyl)-3-(1-(oxetan-3-yl)piperidine-4-yl)-1,3-dihydro-2H-benzo[d]imidazole-2-one]
16 | > 10000 nM | 27 nM | O=c1n(Cc2ccc(-c3nnc(C(F)F)o3)cn2)c2cc(F)c(-c3cccnc3)cc2n1C1CCN(CC(F)(F)F)CC1 [Compound 240, 1-((5-(5-(difluoromethyl)-1,3,4-oxadiazole-2-yl)pyridine-2-yl)methyl)-6-fluoro-5-(pyridine-3-yl)-3-(1-(2,2,2-trifluoroethyl)piperidine-4-yl)-1,3-dihydro-2H-benzo[d]imidazole-2-one]
17 | > 10000 nM | 26 nM | O=c1n(Cc2ccc(-c3nnc(C(F)F)o3)cc2F)c2cc(F)ccc2n1C1CCN(C2CCOCC2)CC1 [Compound 72, 3-(4-(5-(difluoromethyl)-1,3,4-oxadiazole-2-yl)-2-fluorobenzyl)-5-fluoro-1-(1-(tetrahydro-2H-pyran-4-yl)piperidine-4-yl)-1,3-dihydro-2H-benzo[d]imidazole-2-one]
18 | > 10000 nM | 110 nM | O=c1n(Cc2ccc(-c3nnc(C(F)F)o3)cc2F)c2ccccc2n1C1CC2(COC2)C1 [Compound 27, 1-(4-(5-(difluoromethyl)-1,3,4-oxadiazole-2-yl)-2-fluorobenzyl)-3-(2-oxaspiro[3.3]heptane-6-yl)-1,3-dihydro-2H-benzo[d]imidazole-2-one]
